Experimental data: US10040781B2, “Tank-binding kinase inhibitor compounds” (Gilead Sciences, Inc., priority 2014, dated 2018)
Where two headings read alike, the source gives them in different places.

Experiments:
TBK1 = TBK1 (Homo sapiens (Human), UniProt Q9UHD2); assay: TBK1 TR-FRET enzymatic assay;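 note: phosphorylation of a biotinylated Ser/Thr peptide by purified full-length recombinant TBK1, read by TR-FRET after 240 min at 25 °C, IC50 is the geometric mean of at least four runs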
hJAK2 = hJAK2 (Homo sapiens (Human), UniProt O60674); assay: hJAK2 LANCE TR-FRET enzymatic assay; format: biochemical; details: read-out: JAK2 IC50
IKKε = IKKε (Homo sapiens (Human), UniProt Q14164); assay: IKKε TR-FRET enzymatic assay; format: biochemical; details: read-out: IKKe IC50
[1] = TR-FRET, 2×Km ATP, geometric mean of minimum four determinations

Chain of hJAK2 (O60674 whole entry): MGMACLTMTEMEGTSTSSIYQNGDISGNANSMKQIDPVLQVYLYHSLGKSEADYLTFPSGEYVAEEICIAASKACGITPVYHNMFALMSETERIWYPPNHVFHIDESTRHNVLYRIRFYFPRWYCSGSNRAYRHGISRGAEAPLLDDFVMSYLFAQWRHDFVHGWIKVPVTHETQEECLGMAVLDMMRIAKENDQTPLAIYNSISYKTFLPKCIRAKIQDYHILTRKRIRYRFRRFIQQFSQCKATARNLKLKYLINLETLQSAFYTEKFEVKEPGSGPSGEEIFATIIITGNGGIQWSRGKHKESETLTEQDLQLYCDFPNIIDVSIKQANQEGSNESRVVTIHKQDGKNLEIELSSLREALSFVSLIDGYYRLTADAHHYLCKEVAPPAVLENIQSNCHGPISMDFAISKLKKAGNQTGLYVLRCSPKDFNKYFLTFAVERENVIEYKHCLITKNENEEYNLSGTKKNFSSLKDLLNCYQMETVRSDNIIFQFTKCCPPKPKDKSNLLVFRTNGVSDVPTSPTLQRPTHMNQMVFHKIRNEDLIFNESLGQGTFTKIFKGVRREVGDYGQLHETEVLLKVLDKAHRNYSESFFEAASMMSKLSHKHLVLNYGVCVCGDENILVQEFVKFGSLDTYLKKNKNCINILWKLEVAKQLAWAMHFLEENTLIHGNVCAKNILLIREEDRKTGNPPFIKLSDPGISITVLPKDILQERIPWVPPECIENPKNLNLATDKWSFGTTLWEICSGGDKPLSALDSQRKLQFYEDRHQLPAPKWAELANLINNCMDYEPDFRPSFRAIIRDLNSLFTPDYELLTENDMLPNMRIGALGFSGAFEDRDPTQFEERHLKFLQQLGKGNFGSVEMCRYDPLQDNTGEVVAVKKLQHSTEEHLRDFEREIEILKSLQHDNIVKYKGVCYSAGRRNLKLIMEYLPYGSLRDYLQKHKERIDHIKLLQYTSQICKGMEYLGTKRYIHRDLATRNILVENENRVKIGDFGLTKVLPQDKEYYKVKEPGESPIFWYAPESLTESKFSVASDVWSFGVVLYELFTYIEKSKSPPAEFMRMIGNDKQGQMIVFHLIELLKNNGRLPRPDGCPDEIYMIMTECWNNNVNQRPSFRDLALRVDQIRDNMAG
Chain of TBK1 (Q9UHD2 whole entry): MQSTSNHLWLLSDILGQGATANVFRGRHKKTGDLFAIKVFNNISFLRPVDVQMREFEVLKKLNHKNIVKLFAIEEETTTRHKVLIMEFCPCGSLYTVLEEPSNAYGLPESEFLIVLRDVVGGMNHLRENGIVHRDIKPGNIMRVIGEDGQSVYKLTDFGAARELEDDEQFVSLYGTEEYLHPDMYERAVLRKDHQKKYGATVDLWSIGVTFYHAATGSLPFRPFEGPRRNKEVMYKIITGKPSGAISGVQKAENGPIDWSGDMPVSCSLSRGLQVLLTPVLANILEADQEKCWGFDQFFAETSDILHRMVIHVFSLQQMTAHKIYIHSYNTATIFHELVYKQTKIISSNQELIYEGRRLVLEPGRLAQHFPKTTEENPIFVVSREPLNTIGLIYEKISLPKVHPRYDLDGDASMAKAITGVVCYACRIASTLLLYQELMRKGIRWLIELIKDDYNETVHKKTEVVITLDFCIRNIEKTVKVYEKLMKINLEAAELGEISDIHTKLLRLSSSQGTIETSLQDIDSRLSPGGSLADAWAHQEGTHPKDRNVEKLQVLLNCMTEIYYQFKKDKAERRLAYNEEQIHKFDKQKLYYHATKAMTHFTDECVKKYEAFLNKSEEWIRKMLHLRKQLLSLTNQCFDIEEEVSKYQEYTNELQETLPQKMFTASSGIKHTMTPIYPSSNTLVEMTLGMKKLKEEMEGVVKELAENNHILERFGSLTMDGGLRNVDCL
Chain of IKKε (Q14164 whole entry): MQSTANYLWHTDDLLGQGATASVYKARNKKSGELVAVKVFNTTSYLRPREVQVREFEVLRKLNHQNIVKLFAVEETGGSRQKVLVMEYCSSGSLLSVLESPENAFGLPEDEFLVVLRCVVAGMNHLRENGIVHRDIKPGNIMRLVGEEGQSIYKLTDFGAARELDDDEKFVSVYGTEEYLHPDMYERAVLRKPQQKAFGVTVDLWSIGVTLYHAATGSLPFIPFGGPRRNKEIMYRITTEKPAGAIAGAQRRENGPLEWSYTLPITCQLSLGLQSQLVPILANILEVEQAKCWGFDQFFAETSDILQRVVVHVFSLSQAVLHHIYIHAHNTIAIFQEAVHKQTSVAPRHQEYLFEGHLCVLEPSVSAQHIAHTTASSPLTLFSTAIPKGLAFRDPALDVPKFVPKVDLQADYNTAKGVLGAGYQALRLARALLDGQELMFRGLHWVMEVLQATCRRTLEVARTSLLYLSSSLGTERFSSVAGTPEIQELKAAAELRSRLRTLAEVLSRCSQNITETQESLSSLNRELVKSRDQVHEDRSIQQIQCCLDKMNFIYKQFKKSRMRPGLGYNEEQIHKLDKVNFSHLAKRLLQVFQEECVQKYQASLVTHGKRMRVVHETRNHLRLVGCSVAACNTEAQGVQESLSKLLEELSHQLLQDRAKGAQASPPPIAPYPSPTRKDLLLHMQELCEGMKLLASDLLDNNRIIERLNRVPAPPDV

IC50 (TBK1) | IC50 (hJAK2) | IC50 (IKKε; [1]) | IC50 (IKKε) | SMILES
3 nM | 389 nM |  | 2 nM | C[C@H](O)C(=O)N1CC[C@H](Oc2ccc(-c3ncnc(Nc4ccc(N5CCN(C6COC6)C[C@@H]5C)cc4)n3)cc2C#N)[C@H](F)C1 [Example 249, 2-(((3R,4S)-3-fluoro-1-((S)-2-hydroxypropanoyl)piperidin-4-yl)oxy)-5-(4-((4-((S)-2-methyl-4-(oxetan-3-yl)piperazin-1-yl)phenyl)amino)-1,3,5-triazin-2-yl)benzonitrile]
3 nM | 127 nM |  | 5 nM | C[C@H]1CN(C2COC2)CCN1c1ccc(Nc2ncnc(-c3ccc(O[C@H]4CCN(C(=O)CC#N)C[C@H]4F)c(C#N)c3)n2)cc1 [Example 250, 2-(((3R,4S)-1-(2-cyanoacetyl)-3-fluoropiperidin-4-yl)oxy)-5-(4-((4-((S)-2-methyl-4-(oxetan-3-yl)piperazin-1-yl)phenyl)amino)-1,3,5-triazin-2-yl)benzonitrile]
2 nM | 189 nM |  | 1 nM | N#Cc1cc(-c2ncnc(Nc3ccc(N4CCOC[C@H]4CO)cc3)n2)ccc1O[C@H]1CCN(C(=O)CO)C[C@H]1F [Example 384, 2-(((3R,4S)-3-fluoro-1-(2-hydroxyacetyl)piperidin-4-yl)oxy)-5-(4-((4-((R)-3-(hydroxymethyl)morpholino)phenyl)amino)-1,3,5-triazin-2-yl)benzonitrile]

Continued, molecule first:

SMILES | IC50 (TBK1) | IC50 (hJAK2) | IC50 (IKKε; [1]) | IC50 (IKKε)
N#Cc1cc(-c2ncnc(Nc3ccc(N4CCN(C5COC5)CC4)cc3)n2)ccc1O[C@H]1CCN(C(=O)CO)C[C@@H]1C(F)(F)F (relative stereo) [Example 438, Trans-2-((1-(2-hydroxyacetyl)-3-(trifluoromethyl)piperidin-4-yl)oxy)-5-(4-((4-(4-(oxetan-3-yl)piperazin-1-yl)phenyl)amino)-1,3,5-triazin-2-yl)benzonitrile] | 6 nM | 15 nM | 8 nM | 
N#Cc1cc(-c2ncnc(Nc3cccc(N4CCOCC4)c3)n2)ccc1OC1CCOCC1 [Example 63, 5-(4-((3-morpholinophenyl)amino)-1,3,5-triazin-2-yl)-2-((tetrahydro-2H-pyran-4-yl)oxy)benzonitrile] | 4 nM | 938 nM |  | 8 nM
N#Cc1cc(-c2ncnc(Nc3ccc(N4CCN(C5COC5)CC4)cc3)n2)ccc1OCCn1ccnc1 [Example 592, 2-(2-(1H-imidazol-1-yl)ethoxy)-5-(4-((4-(4-(oxetan-3-yl)piperazin-1-yl)phenyl)amino)-1,3,5-triazin-2-yl)benzonitrile] | 21 nM | 239 nM | 23 nM | 
N#Cc1cc(-c2ncnc(Nc3ccc(N4CCOCC4)cc3)n2)ccc1NC(=O)C1CC1 [Example 42, N-(2-cyano-4-(4-((4-morpholinophenyl)amino)-1,3,5-triazin-2-yl)phenyl)cyclopropanecarboxamide] | 35 nM | 24 nM |  | 71 nM
N#Cc1cc(-c2ncnc(Nc3ccc(N4CCN(C5CCOCC5)CC4)c(F)c3)n2)ccc1O[C@H]1CCN(C(=O)CO)C[C@H]1F [Example 307, 2-(((3R,4S)-3-fluoro-1-(2-hydroxyacetyl)piperidin-4-yl)oxy)-5-(4-((3-fluoro-4-(4-(tetrahydro-2H-pyran-4-yl)piperazin-1-yl)phenyl)amino)-1,3,5-triazin-2-yl)benzonitrile] | 3 nM | 268 nM |  | 1 nM
Cc1cc(Nc2ncnc(-c3ccc(O[C@H]4CCN(C(=O)[C@@H]5CCC(=O)N5)C[C@H]4F)c(C#N)c3)n2)ccc1N1CCN(C2COC2)CC1 [Example 536, 2-(((3R,4S)-3-fluoro-1-((S)-5-oxopyrrolidine-2-carbonyl)piperidin-4-yl)oxy)-5-(4-((3-methyl-4-(4-(oxetan-3-yl)piperazin-1-yl)phenyl)amino)-1,3,5-triazin-2-yl)benzonitrile] | 2 nM | 101 nM | 1 nM | 
